In US20110183951A1, “Copper (1) Complex” (priority 2006, published 2011):

How the values were obtained:
rats [1] = experiment: Bioavailability studies on rats (liver and kidney functions, blood picture, lipid profile); format: in vivo
Excerpt: The study on rats included five groups, group 1 control, 2 receiving cu, group.2 pyrazinic, group 3 complex with large dose, & group 5 receiving complex with small dose.

[2] = Physical properties: stability of the complex; format: physicochemical; conditions: solid, when well-dried
[3] = Physical properties: solubility of the complex; format: physicochemical
Excerpt: Solubility: the complex is insoluble in non-polar solvents, e.g. benzene, carbon tetrachloride, etc., and insoluble in polar solvents: water, methanol, ethanol, acetone, but soluble in these solvents upon heating in inert atmosphere, to prevent oxidation.

rats [4] = experiment: Toxicity of the complex (LD50, mortality within 24 hrs); format: in vivo
Method: Seventy two rats (250+/−2.0 g b.wt) were randomly located into 12 groups of 6 rats each.
Mortality in each group were recorded within 24 hrs.

[5] = tested on: muscle weakness (muscle dystrophies, post stroke weakness); experiment: Clinical trials for treatment of weakness of muscles; format: in vivo, human
Excerpt: The complex used in treatment of muscle weakness for different underlying causes (muscle dystrophies post stroke weakness). […] When the patient reaches the optimum dose, onset of improvement in muscle power is observed within hours of drug intake.

dilated Cardiomyopathy = experiment: Clinical trials in cardiomyopathy; format: in vivo, human; conditions: clinically and in ECHO cardiographic measurements
Excerpt: Improvement is shown both clinically and in the ECHO cardiographic measurements.

[6] = tested on: male infertility (sperm count, motility); experiment: Male infertility study, 20 patients; format: in vivo, human
fatigue = experiment: Clinical trials for treatment of fatigue in humans; format: in vivo
[7] = tested on: stem cell differentiation; experiment: In vivo stem cell, CD4 and CD8 counts before and during medication; conditions: before and at regular intervals of medication
Excerpt: We hypothesized that the drug may have a role in stimulating the stem cells present in the various organs to differentiate. […] In vivo we measured the stem cell count together with CD8 and CD4 cells before, and at regular intervals of medication.

O=C(O)c1cnccn1 [pyrazinic, pyrazinic acid, reference compound]
Lipid profile (rats [1]): didn't show significant difference
liver and kidney functions versus control (rats [1]): no significant difference

[CuCI (pyrazinic acid)2].2H2O [complex]
Stability [2]: sufficiently stable when well-dried
Solubility in non-polar solvents ([3]; e.g. benzene, carbon tetrachloride): insoluble
Solubility in polar solvents upon heating ([3]; upon heating in inert atmosphere): soluble
Solubility in polar solvents ([3]; water, methanol, ethanol, acetone): insoluble
LD50 (intrapperitoneally) (rats [4]; intraperitoneal): 128 mg/kg
LD50 (oral) (rats [4]; oral): 1104.17 mg/kg
Lipid profile (rats [1]): didn't show significant difference
liver and kidney functions versus control (rats [1]): no significant difference
lymphocytic count (complete blood picture) (rats [1]; large and small dose groups, not exceeding the normal range): increase of lymphocytic count
Clinical improvement in DMS patients ([5]; affected by age, weight and degree of dystrophy): dose dependant
onset of improvement in muscle power ([5]; at optimum dose, after drug intake): within hours
cases improved, dilated cardiomyopathy due to other causes (dilated Cardiomyopathy): 80%
improvement of dilated Cardiomyopathy secondary to Duchenne muscle dystrophy (dilated Cardiomyopathy): improved all cases
sperm motility ([6]; all cases): significant improvement of motility
azospermic patients who got healthy babies ([6]; among the responders): two of them got healthy babies
oligospermia cases who got healthy babies ([6]; human, in vivo): four cases got also healthy babies
sperm count in azospermic patients after treatment ([6]; responders, within 6 weeks of treatment): 1.5-3 millions/hpf
sperm count in Oligospermia ([6]; within 1 month of treatment): doubling of the count
azospermic patients whose count increased ([6]; within 6 weeks of treatment): seven out of nine
muscle pain (fatigue; all types of fatigue): relieved the muscle pain
physical activity and productivity (fatigue; all types of fatigue): increased the physical activity and productivity
agonizing fatigue in Parkinsonism, myositis, disseminated sclerosis (fatigue; human, in vivo): improves markedly
CD4/CD8 [7]: no disturbance
CD4 and CD8 number [7]: increase
stem cell count [7]: significant decrease
